Reference: patent US20060122279A1, “Hydrophobic polyamine amides as potent lipopolysaccharide sequestrants” (priority 2004, published 2006)
Several values for one entry are separate records, joined by “and”; a condition that tells them apart may be missing. Equal entries are not always repeated. Where two headings read alike, the source gives them in different places. Marks after values point to notes of the source that are not given here.

Experiments:
[1] = tested on: CF-1 mice; assay: Mouse lethality model of endotoxic shock (D-galactosamine sensitized, LPS challenge); type: in vivo; details: for time window of protection, in words: 200 ng/mouse LPS
Procedure: Based on the results of the displacement assays, NO and cytokine inhibition data, 8 is elected for detailed evaluation in animal experiments. […] In all experiments reported herein, a supralethal dose of 200 ng per mouse, in a final volume of 0.2 ml saline is used. The dose-response of protection afforded by 8 is depicted in Table 4. Previous studies with labile spermine conjugates such as DOSPER^37 had shown the window of protection to be very short, a 15 minute window of protection. Compound 8, with its greater anticipated hydrolytic stability, is examined to see if it affords a more extended time-window of protection. 200 μg of 8 in a final volume of 0.2 ml injections are administered intraperitoneally at times of −6, −4, −2, 0, +1, and +2 relative to time-zero, the time at which all mice are challenged with 200 ng/mouse LPS injections. […] Testing to see if in this treatment regime, which is characterized by a slow, gradual systemic absorption from the site of injection, a longer duration of protection would be observed is carried out. Lethality is once again assessed 24 hours following the final injection.
Female, outbred, 9- to 11-week-old CF-1 mice (Charles River, Wilmington, Mass.) weighing 22-28 g are used as described elsewhere.^37 Upon arrival, the mice are allowed to acclimatize for a week prior to experimentation, housed 5 per cage in a controlled environment at the AALAC-accredited University of Kansas Animal Care Facility, and allowed access to mouse chow and water ad libitum. […] In experiments designed to test dose-response effects of the acyl-spermines in affording protection against LPS-induced lethality, mice receive graded doses of compound diluted in saline, i.p., in one flank, immediately before a supralethal (200 ng) LPS challenge, which is administered as a separate i.p. injection into the other flank. In experiments in which the temporal window of protection is to be examined, a fixed dose of 200 μg/mouse of compound is administered at various times, before, or after supralethal (200 ng/mouse) LPS challenge. Lethality is determined at 24 h post LPS challenge.

[2] = tested on: TNF-α and IL-6 production in whole human blood; assay: Multiplexed cytokine assay ex vivo in human blood stimulated with LPS; type: cell-based; details: versus polymyxin B
Procedure: The activity of a subset of active Lys-spermine compounds is examined for their ability to inhibit TNF-α and IL-6 production in whole human blood, stimulated ex vivo with LPS.
100 μl aliquots of fresh whole blood, anticoagulated with EDTA, obtained by venipuncture from healthy human volunteers with informed consent and as per guidelines approved by the Human Subjects Experimentation Committee, is exposed to an equal volume of 50 ng/ml of E. coli 0111:B4 LPS, with graded concentrations of test compounds diluted in saline for 4 h in a 96-well microtiter plate. The effect of the compounds on modulating cytokine production examined using a FACSArray multiplexed flow-cytometric bead array (CBA) system (Becton-Dickinson-Pharmingen, San Jose, Calif.). The system uses a sandwich ELISA-on-a-bead principle,^55;56 and is comprised of 6 populations of microbeads that are spectrally unique in terms of their intrinsic fluorescence emission intensities (detected in the FL3 channel of a standard flow cytometer). […] After washing the beads, a mixture of optimally paired second antibodies conjugated to phycoerythrin is added which then forms a fluorescent ternary complex with the immobilized cytokine, the intensity (measured in the FL2 channel) of which is proportional to the cytokine concentration on the bead. […] The data are analyzed in the CBA software suite that is integral to the FACSArray system.

[3] = tested on: murine macrophage J774.A1 cells; assay: Nitric oxide (NO) inhibition in LPS-stimulated J774.A1 cells (Griess); type: cell-based
Procedure: Murine monocytes (J774.A1 cells) produce measurable quantities of NO on exposure to LPS and provide a model for the rapid assessment of compounds to neutralize LPS activity. […] In all experiments, Polymyxin B (PMB), a decapeptide antibiotic, known to bind and neutralize LPS,^29;47;48 is used as a reference compound.
Nitric oxide production is measured as total nitrite in murine macrophage J774.A1 cells using the Griess reagent system.^53;54 Murine macrophage J774.A1 cells are grown in RPMI-1640 cell-culture medium containing L-glutamine and sodium bicarbonate and supplemented with 10% fetal bovine serum, 1% L-glutamine-penicillin-streptomycin solution, and 200 μg/ml L-arginine at 37° C. in a 5% CO2 atmosphere. Cells are plated at ˜2×10^6/ml in a volume of 40 μl/well, in 384 well, flat-bottomed, cell culture treated microtiter plates until confluency and subsequently stimulated with 100 ng/ml lipopolysaccharide (LPS). Concurrent to LPS stimulation, serially diluted concentrations of test compounds are added to the cell medium and left to incubate overnight for 16 h. Polymyxin B is used as reference compound in each plate. Positive—(LPS stimulation only) and negative-controls (J774.A1 medium only) are included in each experiment. Nitrite concentrations are measured adding 30 μl of supernatant to equal volumes of Griess reagents (50 μl/well; 0.1% NED solution in ddH2O and 1% sulfanilamide, 5% phosphoric acid solution in ddH2O) and incubating for 15 minutes at room temperature in the dark. Absorbance at 535 nm is measured using a Molecular Devices Spectramax M2 multifunction plate reader (Sunnyvale, Calif.). Nitrite concentrations are interpolated from standard curves obtained from serially diluted sodium nitrite standards.

CCCCCCCCCCCCCCCCCC(=O)NCCCCC(N)C(=O)NCCCNCCCCNCCCN [Compound 8, D-Lys-ε-(stearoyl)-N^1-spermine]
No. of live mice/total no. of mice tested ([1]; 10 μg/mouse i.p., immediately before 200 ng/mouse LPS, lethality at 24 h): 0/5 | No. of live mice/total no. of mice tested ([1]; 50 μg/mouse i.p., immediately before 200 ng/mouse LPS, lethality at 24 h): 1/5 | No. of live mice/total no. of mice tested ([1]; 100 μg/mouse i.p., immediately before 200 ng/mouse LPS, lethality at 24 h): 4/5* | time window of protection, in words ([1]; 200 μg i.p.): significant protection up to 6 h prior to LPS challenge | No. of live mice/total number of mice tested ([1]; 200 μg intraperitoneally at 0 h relative to LPS (200 ng/mouse)): 4/5* | No. of live mice/total number of mice tested ([1]; 200 μg intraperitoneally at +1 h relative to LPS (200 ng/mouse)): 0/5* | No. of live mice/total number of mice tested ([1]; 200 μg intraperitoneally at +2 h relative to LPS (200 ng/mouse)): 2/5 | No. of live mice/total number of mice tested ([1]; 200 μg intraperitoneally at −2 h relative to LPS (200 ng/mouse)): 4/5* | No. of live mice/total number of mice tested ([1]; 200 μg intraperitoneally at −4 h relative to LPS (200 ng/mouse)): 4/5* | No. of live mice/total number of mice tested ([1]; 200 μg intraperitoneally at −6 h relative to LPS (200 ng/mouse)): 3/5 | time window of protection, in words ([1]; 200 μg subcutaneous): significant protection even when the compound is administered 16 h ahead of LPS challenge | No. of live mice/total no. of mice tested ([1]; 200 μg subcutaneously at 0 h relative to LPS (200 ng/mouse)): 1/5 | No. of live mice/total no. of mice tested ([1]; 200 μg subcutaneously at +2 h relative to LPS (200 ng/mouse)): 1/5 | No. of live mice/total no. of mice tested ([1]; 200 μg subcutaneously at −4 h relative to LPS (200 ng/mouse)): 5/5* | No. of live mice/total no. of mice tested ([1]; 200 μg subcutaneously at −8 h relative to LPS (200 ng/mouse)): 3 of the 5 and 3/5 | No. of live mice/total no. of mice tested ([1]; 200 μg subcutaneously at −12 h relative to LPS (200 ng/mouse)): 3 of the 5 and 3/5 | No. of live mice/total no. of mice tested ([1]; 200 μg subcutaneously at −16 h relative to LPS (200 ng/mouse)): 3 of the 5 and 3/5 | No. of live mice/total no. of mice tested ([1]; 200 μg subcutaneously at −24 h relative to LPS (200 ng/mouse)): Two of the 5 and 2/5 | No. of live mice/total no. of mice tested ([1]; 200 μg/mouse i.p., immediately before 200 ng/mouse LPS, lethality at 24 h): 5/5* | inhibitory potency on TNF-α and IL-6 production [2]: almost as potent as polymyxin B | IC50 ([3]; J774.A1 cells, 100 ng/ml LPS, 16 h, Tables 1-3, read-out: NO IC50): 1.98 µM | IC50 ([3]; Table 7 focused library, NO inhibition, read-out: NO): 10.3 µM | prevention of LPS-induced NO release from J774.A1 macrophages ([3]; in words): high activity
